The test system of one assay is Hep-3B cells. The assay can be described thus: Cellular assay: EPO secretion in Hep-3B cells. The assay is classed as cell-based, human. More on the design: EPO secretion, % of control compound: dose or concentration left out as unconfirmed. The conditions noted are these: Homo sapiens, Hep3B, 24 h, EPO secretion as percentage of control compound 7-[(4-Chloro-phenyl)-(5-methyl-isoxazol-3-ylamino)-methyl]-quinolin-8-ol, read-out: Cellular % EPO Stimulation.

In another assay the target is human PHD2181-417 (Homo sapiens (Human), UniProt Q9GZT9). The assay can be described thus: PHD2 enzyme activity assay ([14C]-succinic acid production).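 Further: reaction ran 10 min with compound in Tris pH 7.5 buffer with catalase, DTT and ascorbate, labelled succinate freed of leftover 2-oxoglutarate by DNP precipitation, then beta counted.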 The assay is classed as biochemical. The conditions noted are these: PHD2181-417 polypeptide, HIF-1α peptide 10 μM, [5-14C]-2-oxoglutaric acid; 30 min pre-incubation; tested 10 μM to 3 nM.
Chain of human PHD2181-417 (Q9GZT9 181-417): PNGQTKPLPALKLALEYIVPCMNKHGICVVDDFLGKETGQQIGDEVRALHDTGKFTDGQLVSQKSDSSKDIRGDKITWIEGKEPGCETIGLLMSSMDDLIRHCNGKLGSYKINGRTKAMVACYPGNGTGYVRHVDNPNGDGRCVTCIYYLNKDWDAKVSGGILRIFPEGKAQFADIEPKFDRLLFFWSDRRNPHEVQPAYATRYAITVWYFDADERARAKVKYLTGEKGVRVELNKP

Turning to `O=C(O)c1cnn(-c2nc3cc(S(=O)(=O)CC4CCCCC4)c(Cl)cc3[nH]2)c1` [Example 175, 1-(6-Chloro-5-cyclohexylmethanesulfonyl-1H-benzoimidazol-2-yl)-1H-pyrazole-4-carboxylic Acid], the EPO secretion, % of control compound in the assay with Hep-3B cells was determined as 48.7%. In addition, the “Enzyme pIC50” value on human PHD2181-417 is reported as 7.7.
Taken in the same sequence, the figures for `O=C(O)c1cnn(-c2nc3cc(S(=O)(=O)Cc4ccc(Cl)c(Cl)c4)c(Cl)cc3[nH]2)c1` [Example 176, 1-[6-Chloro-5-(3,4-dichloro-phenylmethanesulfonyl)-1H-benzoimidazol-2-yl]-1H-pyrazole-4-carboxylic Acid] were 44.2% and 7.6.
As for `O=C(O)c1cnn(-c2nc3cc(S(=O)(=O)Cc4c(Cl)cccc4Cl)c(Cl)cc3[nH]2)c1` [Example 177, 1-[6-Chloro-5-(2,6-dichloro-phenylmethanesulfonyl)-1H-benzoimidazol-2-yl]-1H-pyrazole-4-carboxylic Acid], the EPO secretion, % of control compound in the assay with Hep-3B cells amounted to 66.6%. The “Enzyme pIC50” value at human PHD2181-417 is given as 7.5.
With `O=C(O)c1cnn(-c2nc3nc4ccccc4nc3[nH]2)c1` [Example 182, 1-(1H-Imidazo[4,5-b]quinoxalin-2-yl)-1H-pyrazole-4-carboxylic Acid], the EPO secretion, % of control compound in the assay on Hep-3B cells turned out to be 13.4%. In addition, at human PHD2181-417, the “Enzyme pIC50” value turned out to be 5.5.
For `O=C(O)c1cnn(-c2nc3nc4cc(Cl)c(Cl)cc4nc3[nH]2)c1` [Example 183, 1-(6,7-Dichloro-1H-imidazo[4,5-b]quinoxalin-2-yl)-1H-pyrazole-4-carboxylic Acid], in that order: 3.3% and 6.4.
For `O=C(O)c1cnn(-c2nc3nccnc3[nH]2)c1` [Example 184, 1-(1H-Imidazo[4,5-b]pyrazin-2-yl)-1H-pyrazole-4-carboxylic Acid], in that order: 8.3% and 5.9.
For `O=C(O)c1cnn(-c2nc3c(Cl)ncnc3[nH]2)c1` [Example 185, 1-(6-Chloro-9H-purin-8-yl)-1H-pyrazole-4-carboxylic Acid], in that order: 11.7% and 5.3.
In the case of `O=C(O)c1cnn(-c2nc3cc(S(=O)(=O)Nc4ccccc4)c(Cl)cc3[nH]2)c1` [Example 186, 1-(6-Chloro-5-phenylsulfamoyl-1H-benzoimidazol-2-yl)-1H-pyrazole-4-carboxylic Acid], the EPO secretion, % of control compound with Hep-3B cells turned out to be 39.1%. In addition, the “Enzyme pIC50” value at human PHD2181-417 amounted to 7.4.

The record behind these values is patent US10851083B2, “Benzoimidazoles as prolyl hydroxylase inhibitors” (Janssen Pharmaceutica NV, priority 2008, dated 2020).
